A short description of data set [1]: Octanol/PBS partition coefficient (logD7.4). As to conditions: n-octanol/PBS pH 7.4, radiolabeled compound. The class given is physicochemical. As to the method:
The tubes were vortexed at maximum speed for 3 min to ensure equilibrium before centrifugation at 15.000×g for 5 min on a Biofuge 15 from Heraeus Holding GmbH (Osterode, Germany). An aliquot of 100 μL of each fraction was measured in the γ-counter and the log D7.4 calculated as follows: […]

Data set [2] has as its target CXCR4 (Homo sapiens, UniProt P61073). Briefly: Determination of IC50: competition with 125I-Fc-131 on CXCR4-positive Jurkat cells.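 Further: test compound at 10^−5 to 10^−11 M competed for 2 h at 8 °C with the radioligand on 400,000 cells per well, bound versus free activity measured by γ-counting.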 Further details: CXCR4-positive Jurkat T lymphocyte cells were grown in Gibco's RPMI 1640 GlutaMAX medium; endogenous in cells; host or cells: Jurkat T lymphocyte cells (whole cells in suspension, 400.000 per tube). The class given is binding.
Protocol: For in vitro experiments, cells were counted in a hemocytometer using trypan blue as contrast agent. The cell suspension was centrifuged, and the pellet resuspended in HBSS (+1 wt % BSA) to a concentration of 2 mio cells/mL. […] 200 μL of cell suspension (400.000 cells per well) were added to obtain a final peptide concentration range of 10^−5-10^−11 M. The tubes were cooled for 2 h at 8° C. to prevent internalization. The experiment was stopped by removal of the supernatant. 200 μL HBSS were added onto the cells, the suspension centrifuged, and the supernatant pooled with the respective first fractions. This step was repeated once more before the tubes containing the supernatants and the ones containing the cell pellets were subjected to activity measurement in the γ-counter.

The nature of data set [3]: Biodistribution in Jurkat tumor-bearing CB-17 SCID mice. The class given is in vivo. Particulars: female, CB-17 SCID, mouse, in vivo, iv, total radioactivity, 1 h p.i., Jurkat xenograft, CB-17 SCID female mice. As to the method:
All animal experiments were conducted in accordance with general animal welfare regulations in Germany and the institutional guidelines for the care and use of animals. To establish tumor xenografts, Jurkat cells (2-3×10^7 cells) were suspended in a mixture of Gibco's RPMI 1640 medium and Matrigel (1/1; v/v) from BD Biosciences (Heidelberg, Germany), and inoculated subcutaneously onto the right shoulder of 6-10 weeks old CB17-SCID mice from either Charles River GmbH (Sulzfeld, Germany) or the in-house mouse breeding facility. Mice were used when tumors had grown to a diameter of 5-8 mm (4-10 weeks after inoculation).
Approximately 0.5-20 MBq (0.02-0.20 nmol) of the ^125I-, ^177Lu-, ^99mTc-, ^18F- or ^68Ga-labeled ligand were injected into the tail vein of Jurkat tumor-bearing CB-17 SCID mice and the animals sacrificed after the respective biodistribution time. Selected organs were removed, weighted and measured in a γ-counter.

Setting [4] is: Intestine, read-out: % iD/g Intestine.
Setting [5] is: Kidney, read-out: % iD/g Kidney.
Setting [6] is: Muscle, read-out: % iD/g Muscle.
Where [7] appears, read: Pancreas, read-out: % iD/g Pancreas.
The mark [8] stands for this setting: Spleen, read-out: % iD/g Spleen.
[9] abbreviates: Stomach, read-out: % iD/g Stomach.
Where [10] appears, read: unlabeled or cold (natGa/natLu) compound vs 125I-Fc-131, Jurkat cells.

Where two headings read alike, the source gives them in different places. Starred links: 1 amine or outer side, 2 acyl side, 3 side chain; linkers in the order of their positions; H or OH if unused. Positions of bridges follow the written chain, without caps; N, C: chain ends. Non-standard residues stand in square brackets, D forms with d. Residues, ends and D or L forms follow the SMILES beside them. Groups on a side chain read outwards from the residue. Chains are numbered I, II in the order given. *: point of attachment. X6 = CN1/C(=C/C=C/C=C/C2=[N+](CCCCCC(=O)*)c3ccc(S(=O)(=O)[O-])cc3C2(C)C)C(C)(C)c2cc(S(=O)(=O)O)ccc21; X2 = OC[C@H]1O[C@@H](O[C@H]2[C@H](O)[C@@H](O)[C@H](*)O[C@@H]2CO)[C@H](O)[C@@H](O)[C@H]1O; X7 = O=C(O)CN1CCN(CC(=O)O)CCN([C@H](CCC(=O)*)C(=O)O)CCN(CC(=O)O)CC1; Benzoyl(4-SiFtBu2) = CC(C)(C)[Si](F)(c1ccc(C(=O)*)cc1)C(C)(C)C; X5 = CC(C)(C)[Si](F)(c1ccc(C[N+](C)(C)CC(=O)*)cc1)C(C)(C)C; DOTA = O=C(O)CN1CCN(CC(=O)O)CCN(CC(=O)*)CCN(CC(=O)O)CC1; Dolaproine = CO[C@@H]([C@@H]1CCCN1)[C@@H](C)C(=O)O; Dil = CC[C@H](C)[C@H](NC)[C@@H](CC(=O)O)OC; d(γGlu) = O=C(O)[C@@H](CCC(=O)[*:2])N[*:1]; Tyr(3-I) = N[C@@H](Cc1ccc(O)c(I)c1)C(=O)O; X11 = O=C1CC([*:2])C(=O)N1CCCCCC(=O)[*:1]; 2Nal = N[C@@H](Cc1ccc2ccccc2c1)C(=O)O; d2Nal = N[C@H](Cc1ccc2ccccc2c1)C(=O)O; PABC = O=C(OCc1ccc(N[*:1])cc1)[*:2]; X10 = C[C@@H](N*)[C@@H](O)c1ccccc1; Cit = NC(=O)NCCC[C@H](N)C(=O)O; dNMeOrn = CN[C@H](CCCN)C(=O)O; NMeV = CN[C@H](C(=O)O)C(C)C; d(hCys) = N[C@H](CCS)C(=O)O; Mercaptoacetyl = O=C(CS)*; 4Abz = Nc1ccc(C(=O)O)cc1; dDap = NC[C@@H](N)C(=O)O; CO = O=C([*:1])[*:2]; Ahx = NCCCCCC(=O)O

Chain of CXCR4 (P61073 whole entry): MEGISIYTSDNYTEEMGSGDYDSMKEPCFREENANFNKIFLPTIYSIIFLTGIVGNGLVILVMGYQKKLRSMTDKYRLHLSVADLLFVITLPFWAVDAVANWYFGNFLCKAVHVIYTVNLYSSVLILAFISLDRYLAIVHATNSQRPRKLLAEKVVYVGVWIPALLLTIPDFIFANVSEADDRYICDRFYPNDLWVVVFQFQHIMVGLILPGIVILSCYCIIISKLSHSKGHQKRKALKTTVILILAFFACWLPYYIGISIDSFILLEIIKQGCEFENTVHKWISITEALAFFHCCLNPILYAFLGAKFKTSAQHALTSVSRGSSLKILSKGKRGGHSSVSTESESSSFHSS

What is called IC50 is the concentration that gives 50% inhibition. Low readings indicate higher potency, high ones lower potency. Regarding `CC[C@H](C)[C@@H]([C@@H](CC(=O)N1CCC[C@H]1[C@H](OC)[C@@H](C)C(=O)N[C@H](C)[C@@H](O)c1ccccc1)OC)N(C)C(=O)[C@@H](NC(=O)[C@H](C(C)C)N(C)C(=O)OCc1ccc(NC(=O)[C@H](CCCNC(N)=O)NC(=O)[C@@H](NC(=O)CCCCCN2C(=O)CC(SCC[C@@H](NC(C)=O)C(=O)N[C@H](CNC(=O)CC[C@H](C(=O)O)N3CCN(CC(=O)O)CCN(CC(=O)O)CCN(CC(=O)O)CC3)C(=O)NCCCCCC(=O)N[C@H](CN)C(=O)N[C@H](CCCNC(=N)N)C(=O)N[C@H](C)C(=O)Nc3ccc(C(=O)NCCC[C@@H]4C(=O)N[C@@H](CCCNC(=N)N)C(=O)N[C@@H](Cc5ccc6ccccc6c5)C(=O)NCC(=O)N[C@H](Cc5ccc(O)cc5)C(=O)N4C)cc3)C2=O)C(C)C)cc1)C(C)C` (stereo partly drawn) [CXCR4-MMAE-4] (I: V[Cit][PABC][NMeV]V[Dil][Dolaproine]-X10 / II: Ac-[d(hCys)][dDap](X7)[Ahx][dDap][dR][dA][4Abz] / III: cyclo([2Nal]G[dY][dNMeOrn]R); linker I:N-II:1 via X11; amide II:C-III:4), the logD7.4 in data set [1] is reported as −1.04 ± 0.07 (8). For the same molecule, in data set [2], the IC50 came out at 113 ± 20 nM.

On to `C[C@@H](NC(=O)[C@@H](CCCNC(=N)N)NC(=O)[C@@H](CN)NC(=O)CCCCC[N+]1=C(/C=C/C=C/C=C2/N(C)c3ccc(S(=O)(=O)O)cc3C2(C)C)C(C)(C)c2cc(S(=O)(=O)[O-])ccc21)C(=O)Nc1ccc(C(=O)NCCC[C@@H]2C(=O)N[C@@H](CCCNC(=N)N)C(=O)N[C@H](Cc3ccc4ccccc4c3)C(=O)NCC(=O)N[C@@H](Cc3ccc(O)c(I)c3)C(=O)N2C)cc1` [CXCR4-OI-2] (cyclo([Tyr(3-I)][dNMeOrn]([4Abz-dA-dR-dDap-X6])R[d2Nal]G)), for which the tissue uptake at 1 h in data set [3] (Blood, read-out: % iD/g Blood) came out at 1.73 %ID/g; in data set [3] (Bone, read-out: % iD/g Bone), 1.2 %ID/g; in data set [3] (Heart, read-out: % iD/g Heart), 1.84 %ID/g; in data set [3] (setting [4]) it was 1.88 %ID/g; in data set [3] (setting [5]) it was 13.9 %ID/g; in data set [3] (Liver, read-out: % iD/g Liver), 35.3 %ID/g. In addition, the tissue uptake at 1 h in data set [3] (Lung, read-out: % iD/g Lung) was 5.54 %ID/g; in data set [3] (setting [6]), 0.41 %ID/g; in data set [3] (setting [7]), 1.1 %ID/g; in data set [3] (setting [8]), 16.1 %ID/g; in data set [3] (setting [9]) it was 4.01 %ID/g; in data set [3] (Thyroid, read-out: % iD/g Thyroid), 1.46 %ID/g. For the same molecule, the tissue uptake at 1 h in data set [3] (Tumor, read-out: % iD/g Tumor) came out at 1.1 %ID/g. Moreover, the logD7.4 in data set [1] was −1.83 ± 0.02 (5). The molecule also had an IC50 in data set [2] (setting [10]) of 10.2 ± 3.95 nM.

For `C[C@@H](NC(=O)[C@@H](CCCNC(=N)N)NC(=O)[C@@H](CN)NC(=O)[C@@H](CNC(=O)CC[C@H](C(=O)O)N1CCN(CC(=O)O)CCN(CC(=O)O)CCN(CC(=O)O)CC1)NC(=O)[C@@H](CNC(=O)c1ccc([Si](F)(C(C)(C)C)C(C)(C)C)cc1)NC(=O)CC[C@@H](NC(=O)N[C@H](CCC(=O)O)C(=O)O)C(=O)O)C(=O)Nc1ccc(C(=O)NCCC[C@@H]2C(=O)N[C@@H](CCCNC(=N)N)C(=O)N[C@@H](Cc3ccc4ccccc4c3)C(=O)NCC(=O)N[C@H](Cc3ccc(O)cc3)C(=O)N2C)cc1` [CXCR4-SiFA-4 [Lu]] (I: {dE-CO-d(γGlu)}-[dDap](Benzoyl(4-SiFtBu2))[dDap](X7)[dDap][dR][dA][4Abz] / II: cyclo([dY][dNMeOrn]R[2Nal]G); amide I:C-II:2), the logD7.4 in data set [1] was −1.71 ± 0.09 (8). The same molecule yielded an IC50 in data set [2] (setting [10]) of 93.4 ± 10.2 nM.

For the molecule `C[C@@H](NC(=O)[C@@H](CCCNC(=N)N)NC(=O)[C@@H](CN)NC(=O)CCCCCNC(=O)[C@@H](CNC(=O)CC[C@H](C(=O)O)N1CCN(CC(=O)O)CCN(CC(=O)O)CCN(CC(=O)O)CC1)NC(=O)[C@@H](CNC(=O)c1ccc([Si](F)(C(C)(C)C)C(C)(C)C)cc1)NC(=O)CC[C@@H](NC(=O)N[C@H](CCC(=O)O)C(=O)O)C(=O)O)C(=O)Nc1ccc(C(=O)NCCC[C@@H]2C(=O)N[C@@H](CCCNC(=N)N)C(=O)N[C@@H](Cc3ccc4ccccc4c3)C(=O)NCC(=O)N[C@H](Cc3ccc(O)cc3)C(=O)N2C)cc1` [CXCR4-SiFA-5 [Lu]] (I: {dE-CO-d(γGlu)}-[dDap](Benzoyl(4-SiFtBu2))[dDap](X7)[Ahx][dDap][dR][dA][4Abz] / II: cyclo([dY][dNMeOrn]R[2Nal]G); amide I:C-II:2), the logD7.4 in data set [1] is on record as −1.73 ± 0.05 (6). In data set [2] (setting [10]), this molecule showed an IC50 of 45.8 ± 17.4 nM.

As for `C[C@@H](NC(=O)[C@@H](CCCNC(=N)N)NC(=O)[C@@H](CN)NC(=O)CCCCCNC(=O)[C@@H](CNC(=O)CC[C@H](C(=O)O)N1CCN(CC(=O)O)CCN(CC(=O)O)CCN(CC(=O)O)CC1)NC(=O)C[N+](C)(C)Cc1ccc([Si](F)(C(C)(C)C)C(C)(C)C)cc1)C(=O)Nc1ccc(C(=O)NCCC[C@@H]2C(=O)N[C@@H](CCCNC(=N)N)C(=O)N[C@@H](Cc3ccc4ccccc4c3)C(=O)NCC(=O)N[C@H](Cc3ccc(O)cc3)C(=O)N2C)cc1` [CXCR4-SiFA-6 [Lu]], in data set [1], the logD7.4 is −0.85 ± 0.04 (6). The same molecule showed an IC50 in data set [2] (setting [10]) of 8.29 ± 3.11 nM.

On to `C[C@@H](NC(=O)[C@@H](CCCNC(=N)N)NC(=O)[C@@H](CN)NC(=O)CCCCCNC(=O)[C@@H](CNC(=O)CN1CCN(CC(=O)O)CCN(CC(=O)O)CCN(CC(=O)O)CC1)NC(=O)[C@@H](CCS[C@@H]1O[C@H](CO)[C@@H](O[C@@H]2O[C@H](CO)[C@H](O)[C@H](O)[C@H]2O)[C@H](O)[C@H]1O)NC(=O)C[N+](C)(C)Cc1ccc([Si](F)(C(C)(C)C)C(C)(C)C)cc1)C(=O)Nc1ccc(C(=O)NCCC[C@@H]2C(=O)N[C@@H](CCCNC(=N)N)C(=O)N[C@@H](Cc3ccc4ccccc4c3)C(=O)NCC(=O)N[C@H](Cc3ccc(O)cc3)C(=O)N2C)cc1` [CXCR4-SiFA-7 [Lu]] (I: X5-[d(hCys)](X2)[dDap](DOTA)[Ahx][dDap][dR][dA][4Abz] / II: cyclo([dY][dNMeOrn]R[2Nal]G); amide I:C-II:2), for which the logD7.4 in data set [1] was −2.23 ± 0.11 (7). In addition, the IC50 in data set [2] (setting [10]) was determined as 6.05 ± 1.17 nM.

In the case of `C[C@@H](NC(=O)[C@@H](CCCNC(=N)N)NC(=O)[C@@H](Cc1c[nH]cn1)NC(=O)[C@@H](CO)NC(=O)[C@@H](CO)NC(=O)[C@@H](CO)NC(=O)CS)C(=O)Nc1ccc(C(=O)NCCC[C@@H]2C(=O)N[C@@H](CCCNC(=N)N)C(=O)N[C@@H](Cc3ccc4ccccc4c3)C(=O)NCC(=O)N[C@H](Cc3ccc(O)cc3)C(=O)N2C)cc1` [Tc-CXCR4-5] (I: Mercaptoacetyl-[dS][dS][dS][dH][dR][dA][4Abz] / II: cyclo([dY][dNMeOrn]R[2Nal]G); amide I:C-II:2), the tissue uptake at 1 h turned out to be 0.42 %ID/g in data set [3] (Adrenal, read-out: % iD/g Adrenal); 0.65 %ID/g in data set [3] (Blood, read-out: % iD/g Blood); 1.55 %ID/g in data set [3] (Bone, read-out: % iD/g Bone); 0.48 %ID/g in data set [3] (Heart, read-out: % iD/g Heart); 0.76 %ID/g in data set [3] (setting [4]); 2.89 %ID/g in data set [3] (setting [5]). Moreover, the tissue uptake at 1 h was 2.42 %ID/g in data set [3] (Liver, read-out: % iD/g Liver); 1.57 %ID/g in data set [3] (Lung, read-out: % iD/g Lung); 0.15 %ID/g in data set [3] (setting [6]); 0.4 %ID/g in data set [3] (setting [7]); 8.47 %ID/g in data set [3] (setting [8]); 0.7 %ID/g in data set [3] (setting [9]). In data set [3] (Tumor, read-out: % iD/g Tumor), the tissue uptake at 1 h is 1.48 %ID/g. This molecule also returned an IC50 in data set [2] of 11 ± 1.3 nM.

The values are drawn from patent US20250288704A1, “CXCR4-LIGANDS FOR DIAGNOSTIC AND THERAPEUTIC USE AND PRECURSORS THEREOF” (priority 2021, published 2025).
